Data published in patent US9174988B2, “Small molecule inhibitors of hepatitis C virus” (TRUSTEES OF BOSTON UNIVERSITY, priority 2009, dated 2015).
Read-outs that look alike come from different tables or passages of the source.

Experiments:
[1] = target: T1, core106 (HCV core protein domain) dimerization (Hepatitis C virus genotype 1a, UniProt P27958); assay: Core106 ALPHA screen (AlphaScreen) core dimerization assay; assay type: binding; conditions: for inhibition of core dimerization (in words): level of activity in words, partly relative to 16
T1 construct: a core106 protein domain was tagged with either Glutathione-S-transferase (GST) tag or a Flag peptide tag
Procedure: FIG. 16b is a dose-response analysis of compound 1 (SL201). Core106 ALPHA screen assay was used for the dose-response analyses. The compound was dosed from 0 to 100 μM. The IC50 was calculated using a non-linear regression ‘Log (inhibitor) versus response’ with four points for each concentration.
Core106 ALPHA screen assay was used for the dose response analyses. The compounds were dosed from 0 to 100 μM. The IC50 were calculated using a nonlinear regression “Log (inhibitor) vs. response” with 4 points for each concentration. The difference in IC50 for compound 1 (SL201) is due to the using two different lots of SL201 and the values are within experimental error.
This assay employed the AlphaScreen® technology, a secondary Amplified Luminescent Proximity Homogeneous Assay as described in Kota, et al, J. Gen Virol. (2009) 90: 1319-1328, content of which is herein incorporated by reference. AlphaScreen is based on the use of photoactive donor and acceptor beads that recognize specific tags on interacting proteins (Peppard, 2003). Core106 dimerization was confirmed using AlphaScreen technology in which a core106 protein domain was tagged with either Glutathione-S-transferase (GST) tag or a Flag peptide tag. The untagged core106 protein domain was used as a model competitor in the assay. The proteins were diluted to working concentrations in ‘protein buffer’ (100 mM HEPES pH 7.5, 1 mM EDTA, 5 mM DTT, 0.1% CHAPS, 10% glycerol). The donor and acceptor beads were diluted to working concentrations in ‘bead buffer’ (20 mM HEPES pH7.5, 125 mM NaCl, 0.1% BSA, 0.1% CHAPS). GST-tagged core106 (150 nM) was incubated with 150 nM of Flag-tagged core106 for 1 h at room temperature. Anti-Flag acceptor beads (Perkin Elmer Lifesciences) were added to the proteins at a final concentration of 20 μg/ml and incubated for 1 h at room temperature. Then, Glutathione donor beads (Perkin Elmer Lifesciences) were added to the proteins at a final concentration of 20 μg/ml and incubated for 1 h. The assays were executed in a white 384 well Packard opti plate (Perkin Elmer Lifesciences) and were read on Perkin Elmer Envision.
Uninhibited or 0% inhibition control is defined as wells containing only GST-core106 and Flag-core106. 100% inhibition control is defined as wells containing GST-core106 and Flag-core106 with core106 as an inhibitor. Test compound is wherein the test compound is analyzed.
Compounds were tested in triplicate in a 10-point series starting at a nominal test concentration of 50 nM. For each test compound, percent inhibition was plotted against compound concentration. A four parameter equation describing a sigmoidal dose-response curve was plotted using GraphPad Prism® (GraphPad Software Inc). The reported IC50 values were generated from fitted curves by solving for the X-intercept value at the 50% inhibition level of the Y-intercept value.

[2] = XTT cytotoxicity assay (CC50); assay type: cell-based; conditions: human, CC50
Text: (§1) This assay utilized the compound XTT (2,3-bis[2-methoxy-4-nitro-5-sulfophenyl]-2H-tetrazolium-5-carboxyanilide inner salt) with addition of an electron coupling agent phenazine methosulfate (PMS) to measure mitochondrial dehydrogenases activity in living cells, e.g., Huh-7.5 cells. Dehydrogenases in mitochondria of living cells cleave the tetrazolium ring of XTT changing the color of the solution from clear to orange. As designed, compounds that reduce cell viability will reduce activity of the mitochondrial dehydrogenases, and leave a decreased orange color in solution.
(§2) The Huh-7.5 cell line was routinely cultured in 15-cm dishes at 37 degrees C. and 95% relative humidity (RH). The growth media consisted of DMEM supplemented with 10% v/v certified fetal bovine serum, 4 mM L-glutamine, 1 mM sodium pyruvate, 1× antibiotic mix (penicillin, streptomycin, and glutamine), and 1× non-essential amino acids.
(§3) Prior to the start of the assay 8000 cells in 100 microliter volume of colorless growth media were dispensed into each well of 96-well tissue culture-treated microtiter plates and incubated overnight at 37 degrees C. (5% CO2, 95% RH) to allow cells to adhere to the plate. The next day, 100 microliter of test compound in DMSO (1.25% final DMSO concentration) and DMSO only were added to wells. Wells with only test compound in media without cells were used to normalize the data (to account for the color a test compound may have). Next, the plates were incubated for 72 hours at 37 degrees C. (5% CO2, 95% RH). Solution of XTT-PMS was prepared in 1×PBS and added to the cells in 50 microliter volume to each well and incubated for 4 hours at 37 degrees C. (5% CO2, 95% RH). After equilibrating the plates to room temperature for 10 minutes, optical density at 450 nm and […] was measured on Biotek plate reader.
(§4) The percent inhibition for each compound was calculated as follows: % Inhibition=((DMSO Control−Test compound)/DMSO Control)*100, wherein Test compound is defined as wells containing test compound.
(§5) Compounds were tested in triplicate in a 7-point 1:3 dilution series starting at a nominal test concentration of 320 micromolar. For each test compound, percent inhibition was plotted against compound concentration. A four parameter equation describing a sigmoidal dose-response curve was then fitted with adjustable baseline using MicroSoft Excel software. The reported CC50 values were generated from fitted curves by solving for the X-intercept value at the 50% inhibition level of the Y-intercept value.

Huh-7.5 cells = assay: XTT cytotoxicity assay (CC50); assay type: cell-based; conditions: human, 72 h
Text: as §1, §2, §3, §4, §5

HCV 2a J6/JFH-1 = assay: HCV infectivity assay by real-time RT-PCR of HCV RNA (EC50 at T1 and T2); assay type: cell-based, hepatitis C virus; conditions: for EC50's (stage not specified): HCV 2a strain J6/JFH-1 in hepatoma cells; for EC50: Hepatitis C virus
Procedure: In this assay HCV infectivity is measured using real-time RT-PCR to monitor changes in expression of HCV 2a J6/JFH-1 RNA. Cells are incubated with test compound in the presence of HCV, followed by isolation of RNA, conversion to cDNA, and Taqman-based QPCR. As designed, a compound that inhibits HCV infectivity will reduce HCV RNA expression, leading to decreased production of the PCR amplicon, thereby reducing fluorescence, and increasing Ct.
Huh-7.5 cells were plated the day before the assay. After allowing the cells to adhere overnight, test compound was prepared in HCV supernatant by making 1:10 serial dilutions from 100 micromolar down to 0.001 micromolar. Doses of test compound in virus were added to cells and incubated for 24 hours. The next day, cell culture media was removed from each well and replaced with same dilutions of compound in complete media were added to cells and incubated for another 48 hours for T1 timepoint. Then cells were lysed and RNA was isolated using the RNeasy kit (QIAGEN, Valencia, Calif.). Supernatant from T1 was transferred to fresh naïve cells and incubated for 24 hours. Culture media were removed from cells and replaced with complete media and incubated for 48 hours for T2 timepoint. Cells for T2 timepoint were lysed and RNA was isolated using the RNeasy kit (QIAGEN, Valencia, Calif.). DNA was generated using the Taqman reverse transcription kit (Applied Biosystems, Foster City, Calif.). Quantitative real-time polymerase chain reaction (PCR) was performed in triplicate using LightCycler RNA Amplification Kit HybProbe master mix (Roche) with Taqman MGB Probe 6FAM-[…]-MGBNFQ on a model LightCycler480 real time PCR system (Roche). Data are expressed as the mean fold change plus or minus SE of 3 replicates normalized to 100 ug total RNA. Primers used were forward […] and reverse […]. The range of activity was normalized based on measurement of total RNA. Compounds were tested in triplicate in a 6-point 1:10 dilution series starting at a nominal test concentration of 100 micromolar.
The compounds were then studied in the same Huh7-5 cells infected with HCV 2a strain J6/JFH-1 (Kota, et al., ASSAY Drug Dev. Tech (2009) 8: 96). Huh-7.5 hepatoma cells were electroporated with RNA from HCV and the 72-hour supernatant was used as a source of infectious virus. This supernatant was combined with compounds identified as inhibitors of core dimerization. Two stages of infection were studied: early stage (T1), corresponding to the initial 72-hour culture of naïve cells infected in the presence of the inhibitor, and late stage (T2), corresponding to the second 72-hour passage through naïve cells. HCV RNA detected in T1 results from actual viral infection and replication. HCV RNA detected in T2 results from infectious virus secreted in T1 and replicated in freshly infected naïve cells. Real-time reverse-transcriptase PCR was done on RNA extracted and purified from the cells treated with increasing concentrations (0.001-100 μM) of each of the compounds. […] For comparative purposes, data for BILN2061a known inhibitor of the NS3/NS4A protease (Lamarre, et al., Nature (2003) 426: 186), is included.

[3] = inhibition of core dimerization, Table 3, read-out: IC50
[4] = inhibition of core dimerization, see FIG. 17, Table 2, read-out: IC50
[5] = Huh7.5, read-out: HCV2a J6/JFH-1 T1-EC50
[6] = Huh7.5, read-out: HCV2a J6/JFH-1 T2-EC50
[7] = AlphaScreen, read-out: IC50 for inhibition of core dimerization

T1 sequence (P27958 2-106): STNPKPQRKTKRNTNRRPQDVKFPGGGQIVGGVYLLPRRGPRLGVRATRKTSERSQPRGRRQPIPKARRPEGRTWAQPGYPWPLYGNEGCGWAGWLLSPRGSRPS

SMILES | IC50 [1, 3] | IC50 [1, 4] | CC50 at 72 h [2] | CC50 (Huh-7.5 cells) | EC50's (stage not specified) (HCV 2a J6/JFH-1) | EC50 (HCV 2a J6/JFH-1; [5]) | EC50 (HCV 2a J6/JFH-1; [6]) | EC50 (HCV 2a J6/JFH-1; read-out: HCV 2A T1 - EC50) | EC50 (HCV 2a J6/JFH-1; read-out: HCV 2A T2 - EC50) | IC50 [1, 7] | inhibition of core dimerization (in words) [1]
CC#CCN1c2ccccc2[C@]23CCC(=O)N(CCOC)C2=NC(C(=O)OC)=C(C(=O)OC)C13 (mixture of isomers) [Compound 15] | 2 µM | 2 µM | > 320 µM | > 320 µM | single digit | 4.9 µM | 0.7 µM | 4.9 µM | 0.7 µM | – | –
C=CCN1c2ccccc2[C@]23CCC(=O)N(Cc4ccccc4)C2=NC(C(=O)OC)=C(C(=O)OC)C13 (mixture of isomers) [Compound 16] | 1.4 µM | 1.4 µM | 127 µM | 127 µM | single digit | 2.3 µM | 3.2 µM | 2.3 µM | 3.2 µM | 1.4 µM | –
C=CCN1c2ccccc2[C@]23CCC(=O)N(Cc4cc(OC)c(OC)c(OC)c4)C2=NC(C(=O)OC)=C(C(=O)OC)C13 (mixture of isomers) [Compound 17] | 2 µM | 2 µM | 5.3 µM | – | – | 3.8 µM | 3 µM | 3.8 µM | 3 µM | – | –
COC(=O)C1=C(C(=O)OC)C2N(C)c3ccc(OC)cc3[C@@]23C[C@@H](C(=O)OC)N(C(=O)CC(C)C)C3=N1 (single isomer, unassigned) [Compound 1] | 9.3 µM | 9.3 µM | > 320 µM | > 320 µM | – | 14.8 µM | 22.2 µM | 8.8 µM | 8.1 µM | 5.7 µM | –
COc1ccc2c(O[C@@H]3C[C@H]4C(=O)N[C@]5(C(=O)O)C[C@H]5/C=C\CCCCC[C@H](NC(=O)OC5CCCC5)C(=O)N4C3)cc(-c3csc(NC(C)C)n3)nc2c1 [BILN2061, reference compound] | – | – | 5.3 µM | – | – | 0.072 µM | 0.071 µM | – | – | – | –
COC(=O)[C@@H]1C[C@@]23C(=NC(c4ccc([N+](=O)[O-])cc4)=C(C(F)(F)F)C2N(C)c2ccccc23)N1C(C)=O (some centres unmarked) [Compound 22a] | – | – | 310 µM | – | – | – | – | 1.3 µM | 0.9 µM | 5.6 µM | –
COC(=O)C1=C(C(=O)OC)C2N(CCCCCn3cc(-c4ccc(OC)cc4C)nn3)c3ccccc3[C@@]23CCC(=O)N(Cc2ccccc2)C3=N1 (some centres unmarked) [Compound 27] | – | – | > 100 µM | – | – | – | – | 1.4 µM | 1.1 µM | 0.092 µM | sub-micromolar
COC(=O)C1=C(C(=O)OC)C2N(CCCCCn3cc(CNC(C)=O)nn3)c3ccccc3[C@@]23CCC(=O)N(Cc2ccccc2)C3=N1 (some centres unmarked) [Compound 28] | 0.341 µM | – | 150 µM | – | – | – | – | 26.2 µM | 56.2 µM | – | sub-micromolar
COC(=O)C1=C(C(=O)OC)C(NCCCN2c3ccccc3[C@]34CCC(=O)N(Cc5ccccc5)C3=NC(C(=O)OC)=C(C(=O)OC)C24)[C@@]2(c3ccccc3)CCC(=O)N(Cc3ccccc3)C2=N1 (some centres unmarked) [SL235] | 2.9 µM | – | > 36 µM | – | – | – | – | 0.088 µM | 0.735 µM | – | –
